For orientation: DC50 means the concentration giving 50% degradation. The Dmax is the largest share of the target that was removed.

The target in this test is T1, BRM (Homo sapiens, UniProt P51531).
T1 construct: In-Cell Western Screen of BRM Degradation in SW1573 Cells; endogenous in cells; host or cells: SW1573
As to the kind of experiment: In-cell Western screen of BRM degradation in SW1573 cells (Dmax and DC50). In kind it is cell-based. An outline of the steps:
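SW1573 cells were treated overnight (18-20 hours) with compound at 0.1% final DMSO. They were then PFA-fixed, permeabilised with Triton X-100 and immunostained with 800 nm/680 nm secondary antibodies. BRM signal was quantified by LI-COR in-cell Western imaging to derive Dmax and DC50.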

The mark [1] stands for this setting: BRM degradation, SW1573 cells, read-out: DC50.
Setting [2] is: BRM degradation, SW1573 cells, when tested at the top concentration of between 0.3 and 10 μM, read-out: Dmax (%) (% degraded).
[3] abbreviates: BRM degradation, SW1573 cells, tested at the top concentration of between 0.3 and 10 μM, read-out: Dmax (%) (% degraded).
[4] abbreviates: SW1573, % degraded, when tested at the top concentration of between 0.3 and 10 μM, read-out: BRM Dmax (%).
Where [5] appears, read: target protein degradation, read-out: BRM DC50.

Molecules are shown by their SMILES. Like-named read-outs stand apart in the source and are kept apart here.

T1 sequence (P51531 whole entry): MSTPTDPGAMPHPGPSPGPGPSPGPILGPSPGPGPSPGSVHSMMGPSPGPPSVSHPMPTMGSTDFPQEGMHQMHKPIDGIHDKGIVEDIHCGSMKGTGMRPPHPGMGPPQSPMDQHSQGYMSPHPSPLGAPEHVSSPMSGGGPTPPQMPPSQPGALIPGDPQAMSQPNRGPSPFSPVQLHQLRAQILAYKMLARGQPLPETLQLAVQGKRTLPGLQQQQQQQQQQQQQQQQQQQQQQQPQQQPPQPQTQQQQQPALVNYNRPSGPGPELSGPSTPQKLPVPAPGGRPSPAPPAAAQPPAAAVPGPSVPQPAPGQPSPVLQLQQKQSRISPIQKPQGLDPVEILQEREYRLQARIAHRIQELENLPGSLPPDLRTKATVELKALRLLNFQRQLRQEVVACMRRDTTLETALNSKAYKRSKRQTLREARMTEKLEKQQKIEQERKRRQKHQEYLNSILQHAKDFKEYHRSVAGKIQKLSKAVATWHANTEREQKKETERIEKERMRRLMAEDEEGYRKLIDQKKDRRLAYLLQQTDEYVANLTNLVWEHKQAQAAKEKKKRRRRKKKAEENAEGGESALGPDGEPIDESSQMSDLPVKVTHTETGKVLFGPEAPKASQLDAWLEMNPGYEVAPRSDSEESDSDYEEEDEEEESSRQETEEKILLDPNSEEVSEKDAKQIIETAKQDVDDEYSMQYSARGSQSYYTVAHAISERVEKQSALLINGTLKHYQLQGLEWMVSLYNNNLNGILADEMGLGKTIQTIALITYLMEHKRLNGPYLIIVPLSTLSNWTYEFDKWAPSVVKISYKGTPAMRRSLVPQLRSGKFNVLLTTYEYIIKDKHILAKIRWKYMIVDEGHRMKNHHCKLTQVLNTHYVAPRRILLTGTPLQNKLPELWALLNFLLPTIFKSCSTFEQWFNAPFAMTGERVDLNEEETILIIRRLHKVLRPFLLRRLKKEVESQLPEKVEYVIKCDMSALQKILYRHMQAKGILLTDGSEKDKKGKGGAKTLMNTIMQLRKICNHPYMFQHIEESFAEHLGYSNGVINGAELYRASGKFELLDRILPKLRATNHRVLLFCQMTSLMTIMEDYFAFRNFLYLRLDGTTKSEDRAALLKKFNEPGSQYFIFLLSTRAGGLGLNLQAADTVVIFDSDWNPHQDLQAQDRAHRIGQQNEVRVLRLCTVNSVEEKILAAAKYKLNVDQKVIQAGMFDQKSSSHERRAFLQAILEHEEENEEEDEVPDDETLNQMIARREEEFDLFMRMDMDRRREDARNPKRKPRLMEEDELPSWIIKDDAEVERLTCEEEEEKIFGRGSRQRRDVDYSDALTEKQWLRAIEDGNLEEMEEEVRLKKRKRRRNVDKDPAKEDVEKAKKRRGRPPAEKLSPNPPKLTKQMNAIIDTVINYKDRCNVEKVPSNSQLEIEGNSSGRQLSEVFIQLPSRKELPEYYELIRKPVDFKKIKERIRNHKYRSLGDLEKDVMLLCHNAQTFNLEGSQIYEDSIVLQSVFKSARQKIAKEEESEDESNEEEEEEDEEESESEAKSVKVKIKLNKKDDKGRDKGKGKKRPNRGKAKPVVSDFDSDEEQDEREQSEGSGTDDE

For the molecule `Cc1nccn1-c1ccc([C@H](C)NC(=O)[C@@H]2C[C@@H](O)CN2C(=O)[C@H](c2cc(OCCN3CCN(CCOc4cc(N5C6CCC5CN(c5cc(-c7ccccc7O)nnc5N)C6)ccn4)CC3)no2)C(C)C)cc1` [compound 75, (2S,4R)-1-((2S)-2-(3-(2-(4-(2-((4-(3-(3-amino-6-(2-hydroxyphenyl)pyridazin-4-yl)-3,8-diazabicyclo[3.2.1]octan-8-yl)pyridin-2-yl)oxy)ethyl)piperazin-1-yl)ethoxy)isoxazol-5-yl)-3-methylbutanoyl)-4-hydroxy-N-((S)-1-(4-(2-methyl-1H-imidazol-1-yl)phenyl)ethyl)pyrrolidine-2-carboxamide], under setting [1], the DC50 lay within 10 to 30 nM. In addition, the Dmax under setting [2] is more than 75%.

`Cc1ncsc1-c1ccc(CNC(=O)[C@@H]2C[C@@H](O)CN2C(=O)[C@@H](NC(=O)CN2CCN(CCOCCOCCCc3cc(N4C5CCC4CN(c4cc(-c6ccccc6O)nnc4N)C5)ccn3)CC2)C(C)(C)C)cc1` [compound 45, (2S,4R)-1-[(2S)-2-[2-[4-(2-[2-[3-(4-[3-[3-amino-6-(2-hydroxyphenyl)pyridazin-4-yl]-3,8-diazabicyclo[3.2.1]octan-8-yl]pyridin-2-yl)propoxy]ethoxy]ethyl)piperazin-1-yl]acetamido]-3,3-dimethylbutanoyl]-4-hydroxy-N-[[4-(4-methyl-1,3-thiazol-5-yl)phenyl]methyl]pyrrolidine-2-carboxamide]: the DC50 under setting [1] is more than 30 nM. The Dmax under setting [2] was more than 75%.

Turning to `Cc1ncsc1-c1ccc([C@@H](NC(=O)[C@@H]2C[C@@H](O)CN2C(=O)[C@H](c2cc(OCCN3CCC(O[C@H]4C[C@H](Oc5cc(N6C7CCC6CN(c6cc(-c8ccccc8O)nnc6N)C7)ccn5)C4)CC3)no2)C(C)C)C(F)F)cc1` [compound 267, (2S,4R)-1-((2S)-2-(3-(2-(4-((1r,3S)-3-((4-(3-(3-amino-6-(2-hydroxyphenyl)pyridazin-4-yl)-3,8-diazabicyclo[3.2.1]octan-8-yl)pyridin-2-yl)oxy)cyclobutoxy)piperidin-1-yl)ethoxy)isoxazol-5-yl)-3-methylbutanoyl)-N-((R)-2,2-difluoro-1-(4-(4-methylthiazol-5-yl)phenyl)ethyl)-4-hydroxypyrrolidine-2-carboxamide], the DC50 under setting [1] was 2.5 to 10 nM. In addition, the Dmax under setting [3] was more than 75%.

Turning to `CC(C)[C@H](C(=O)N1C[C@H](O)C[C@H]1C(=O)N[C@@H](C)c1ccc(-c2ccnn2C)cc1)c1cc(OCCN2CCN(CCOc3cc(N4C5CCC4CN(c4cc(-c6ccccc6O)nnc4N)C5)ccn3)CC2)no1` [compound 263, (2S,4R)-1-((2S)-2-(3-(2-(4-(2-((4-(3-(3-amino-6-(2-hydroxyphenyl)pyridazin-4-yl)-3,8-diazabicyclo[3.2.1]octan-8-yl)pyridin-2-yl)oxy)ethyl)piperazin-1-yl)ethoxy)isoxazol-5-yl)-3-methylbutanoyl)-4-hydroxy-N-((S)-1-(4-(1-methyl-1H-pyrazol-5-yl)phenyl)ethyl)pyrrolidine-2-carboxamide], under setting [1], the DC50 lay in the range of 2.5 to 10 nM. In addition, the Dmax under setting [3] is more than 75%.

As to `Cc1ncsc1-c1ccc([C@H](C)NC(=O)[C@@H]2C[C@@H](O)CN2C(=O)[C@H](c2cc(OCCCN3CCN(CCCOc4cc(N5C6CCC5CN(c5cc(-c7ccccc7O)nnc5N)C6)ccn4)CC3)no2)C(C)C)cc1` [compound 384, (2S,4R)-1-((2S)-2-(3-(3-(4-(3-((4-(3-(3-amino-6-(2-hydroxyphenyl)pyridazin-4-yl)-3,8-diazabicyclo[3.2.1]octan-8-yl)pyridin-2-yl)oxy)propyl)piperazin-1-yl)propoxy)isoxazol-5-yl)-3-methylbutanoyl)-4-hydroxy-N-((S)-1-(4-(4-methylthiazol-5-yl)phenyl)ethyl)pyrrolidine-2-carboxamide], the Dmax under setting [4] is more than 75%. Besides, the DC50 under setting [5] fell in the range of 2.5 to 10 nM.

For `Cc1ncsc1-c1ccc([C@H](C)NC(=O)[C@@H]2C[C@@H](O)CN2C(=O)[C@@H](c2cc(OCCN3C[C@H]4C[C@@H]3CN4CCOc3cc(N4C5CCC4CN(c4cc(-c6ccccc6O)nnc4N)C5)ccn3)no2)C(C)C)cc1` [compound 136, (2S,4R)-1-((2R)-2-(3-(2-((1R,4R)-5-(2-((4-(3-(3-amino-6-(2-hydroxyphenyl)pyridazin-4-yl)-3,8-diazabicyclo[3.2.1]octan-8-yl)pyridin-2-yl)oxy)ethyl)-2,5-diazabicyclo[2.2.1]heptan-2-yl)ethoxy)isoxazol-5-yl)-3-methylbutanoyl)-4-hydroxy-N-((S)-1-(4-(4-methylthiazol-5-yl)phenyl)ethyl)pyrrolidine-2-carboxamide], the DC50 under setting [1] is less than 2.5 nM. In addition, the Dmax under setting [2] is more than 75%.

As to `Cc1ncsc1-c1ccc([C@@H](COCC2CCOCC2)NC(=O)[C@@H]2C[C@@H](O)CN2C(=O)[C@H](c2cc(OCCN3CCN(CCOc4cc(N5C6CCC5CN(c5cc(-c7ccccc7O)nnc5N)C6)ccn4)CC3)no2)C(C)C)cc1` [compound 272, (2S,4R)-1-((2S)-2-(3-(2-(4-(2-((4-(3-(3-amino-6-(2-hydroxyphenyl)pyridazin-4-yl)-3,8-diazabicyclo[3.2.1]octan-8-yl)pyridin-2-yl)oxy)ethyl)piperazin-1-yl)ethoxy)isoxazol-5-yl)-3-methylbutanoyl)-4-hydroxy-N-((S)-1-(4-(4-methylthiazol-5-yl)phenyl)-2-((tetrahydro-2H-pyran-4-yl)methoxy)ethyl)pyrrolidine-2-carboxamide], the DC50 under setting [1] is more than 30 nM.

For the molecule `CC(C)[C@@H](C(=O)N1C[C@H](O)C[C@H]1C(=O)N[C@@H](C)c1ccc(C#N)cc1)c1cc(N2CCC(CN3CCC(O[C@H]4C[C@H](C#C[C@@H](C)n5cc(-c6cc(-c7ccccc7O)nnc6N)cn5)C4)CC3)CC2)no1` (single isomer, unassigned) [compound 698], under setting [1], the DC50 was less than 2.5 nM. For the same molecule, the Dmax (BRM degradation, SW1573 cells, read-out: Dmax (% degraded)) was more than 75%.

For `Cc1ncsc1-c1ccc([C@H](C)NC(=O)[C@@H]2C[C@@H](O)CN2C(=O)[C@@H](c2cc(OC3CN(CCN4CCC(O[C@H]5C[C@H](Oc6cc(N7C8CCC7CN(c7cc(-c9ccccc9O)nnc7N)C8)ccn6)C5)CC4)C3)no2)C(C)C)cc1` [compound 371, (2S,4R)-1-((2R)-2-(3-((1-(2-(4-((1r,3r)-3-((4-(3-(3-amino-6-(2-hydroxyphenyl)pyridazin-4-yl)-3,8-diazabicyclo[3.2.1]octan-8-yl)pyridin-2-yl)oxy)cyclobutoxy)piperidin-1-yl)ethyl)azetidin-3-yl)oxy)isoxazol-5-yl)-3-methylbutanoyl)-4-hydroxy-N-((S)-1-(4-(4-methylthiazol-5-yl)phenyl)ethyl)pyrrolidine-2-carboxamide], the Dmax under setting [4] was more than 75%. Besides, the DC50 under setting [5] is less than 2.5 nM.

As to `Cc1ncsc1-c1cnc([C@H](C)NC(=O)[C@@H]2C[C@@H](O)CN2C(=O)[C@H](c2cc(OCCN3CCC(O[C@H]4C[C@H](Oc5cc(N6C7CCC6CN(c6cc(-c8ccccc8O)nnc6N)C7)ccn5)C4)CC3)no2)C(C)C)cn1` [compound 490, (2S,4R)-1-((2S)-2-(3-(2-(4-((1r,3S)-3-((4-(3-(3-amino-6-(2-hydroxyphenyl)pyridazin-4-yl)-3,8-diazabicyclo[3.2.1]octan-8-yl)pyridin-2-yl)oxy)cyclobutoxy)piperidin-1-yl)ethoxy)isoxazol-5-yl)-3-methylbutanoyl)-4-hydroxy-N-((S)-1-(5-(4-methylthiazol-5-yl)pyrazin-2-yl)ethyl)pyrrolidine-2-carboxamide], the DC50 under setting [5] was more than 30 nM.

Take `Cc1ncsc1-c1cnc([C@@H](C)NC(=O)[C@@H]2C[C@@H](O)CN2C(=O)[C@H](c2cc(OCCN3CCC(O[C@H]4C[C@H](Oc5cc(N6C7CCC6CN(c6cc(-c8ccccc8O)nnc6N)C7)ccn5)C4)CC3)no2)C(C)C)cn1` [compound 440, (2S,4R)-1-((2S)-2-(3-(2-(4-((1r,3S)-3-((4-(3-(3-amino-6-(2-hydroxyphenyl)pyridazin-4-yl)-3,8-diazabicyclo[3.2.1]octan-8-yl)pyridin-2-yl)oxy)cyclobutoxy)piperidin-1-yl)ethoxy)isoxazol-5-yl)-3-methylbutanoyl)-4-hydroxy-N-((R)-1-(5-(4-methylthiazol-5-yl)pyrazin-2-yl)ethyl)pyrrolidine-2-carboxamide]: the DC50 (degradation of BRM, read-out: BRM DC50) is more than 30 nM.

On to `Cc1ncsc1-c1ccc([C@H](C)NC(=O)[C@@H]2C[C@@H](O)CN2C(=O)[C@H](c2cc(OCCN3CCC(O[C@H]4C[C@H](OCCN5CCOC6(CCN(c7cc(-c8ccccc8O)nnc7N)CC6)C5)C4)CC3)no2)C(C)C)cc1` [compound 358, (2S,4R)-1-((S)-2-(3-(2-(4-((1r,3S)-3-(2-(9-(3-amino-6-(2-hydroxyphenyl)pyridazin-4-yl)-1-oxa-4,9-diazaspiro[5.5]undecan-4-yl)ethoxy)cyclobutoxy)piperidin-1-yl)ethoxy)isoxazol-5-yl)-3-methylbutanoyl)-4-hydroxy-N-((S)-1-(4-(4-methylthiazol-5-yl)phenyl)ethyl)pyrrolidine-2-carboxamide], for which the DC50 under setting [5] was more than 30 nM.

Consider `Cc1ncsc1-c1ccc([C@H](C)NC(=O)[C@@H]2C[C@@H](O)CN2C(=O)[C@@H](c2cc(N3CCC(OC4CCN(C[C@H]5C[C@H](Oc6cc(N7C8CCC7CN(c7cc(-c9ccccc9O)nnc7N)C8)ccn6)C5)CC4)CC3)no2)C(C)C)cn1` [compound 476, (2S,4R)-1-((2R)-2-(3-(4-((1-(((1r,3r)-3-((4-(3-(3-amino-6-(2-hydroxyphenyl)pyridazin-4-yl)-3,8-diazabicyclo[3.2.1]octan-8-yl)pyridin-2-yl)oxy)cyclobutyl)methyl)piperidin-4-yl)oxy)piperidin-1-yl)isoxazol-5-yl)-3-methylbutanoyl)-4-hydroxy-N-((S)-1-(6-(4-methylthiazol-5-yl)pyridin-3-yl)ethyl)pyrrolidine-2-carboxamide], for which the Dmax under setting [4] was more than 75%. Also, the DC50 under setting [5] is less than 2.5 nM.

The values are drawn from US12539292B2, “BRM targeting compounds and associated methods of use” (Arvinas Operations, Inc., priority 2018, dated 2026).
